In patent publication US9896659B2, “Methods, kits, and compositions for stem cell self-renewal” (STOWERS INSTITUTE FOR MEDICAL RESEARCH, priority 2011, dated 2018):

Assays:
[1] = system: Lin^−, CD34^+, CD38^− cells; assay: Long-term ex vivo culture of human umbilical cord blood MNCs, Lin^− CD34^+ CD38^− cells by flow cytometry; type: cell-based; details: 6 weeks culture in STL media; 500 nM 5-Aza-2′-deoxycytidine or 1 μM SR1; relative to STL base media
Description: Cells were cultured in STL media, which consists of the following: StemSpan SFEM media (Stem Cell Technologies, Vancouver, Canada) supplemented with 10 μg/ml heparin (Sigma, St. Louis, Mo.), 0.5× Penicillin/Streptomycin (Sigma, St. Louis, Mo.), 10 ng/ml recombinant human (rh) SCF, 20 ng/ml rh-Tpo (Biovision, Inc., Mountain View, Calif.), and 2 mM lithium chloride (LiCl).
Mononuclear cells (MNCs) were isolated from human umbilical cord blood (UCB) and cultured in STL media (activating both Wnt/β-catenin and PI3K/Akt signaling), STL+StemRegenin1 (SR1), or STL+DNMT inhibitor (DNMTi) and analyzed by flow cytometry. […] 1 μM SR1 (Cellagen Technologies, San Diego, Calif.) or 500 nM of DNMTi (5-Aza-2′-deoxycytidine, A3656, Sigma, St. Louis, Mo.) was added where indicated. DNMTi was prepared fresh in DMSO and added from the start of the culture. 24 hours later, about 75% of media was changed using fresh DNMT inhibitor. 60 hours after culture began, no additional DNMT inhibitor was added during media changes.

NSG recipients = assay: Repopulation of NSG recipients by cultured human UCB cells; type: in vivo; details: STL media + 15 nM Decitabine, brief exposure; 12 weeks post-secondary transplant
Description: 600 HSCs (lineage negative, CD34^+, CD38^− cells) were sorted from human UCB and transplanted into sub-lethally irradiated (3.25 Gy) NSG recipients or cultured for 2 weeks in STL media prior to transplantation. MNCs containing 600 HSCs were also cultured equivalently and transplanted. The uncultured MNC group is not shown due to morbidity of transplant recipients.
MNCs were isolated from human UCB and cultured in STL media or STL media with the DNA methyltransferase inhibitor (DNMTi), Decitabine, added at the concentration of 15 nM. DNMTi was prepared fresh in DMSO and added 12 hours after the start of the culture. Media containing Decitabine was replaced with freshly prepared media every 24 hours two more times. 72 hours after adding Decitabine initially, Decitabine was removed from the culture.
For the transplant experiments, MNCs isolated from human UCB were cultured in media activating the PI3K/Akt pathway (ST media), ST media with StemRegenin1 (SR1), media activating both the PI3K/Akt and Wnt/β-catenin pathways (STL media), or STL media+DNMTi for 14 days. The cultured progeny of 2×10^5 MNCs per recipient were transplanted into sub-lethally irradiated (3.25 Gy) NSG recipients. […] 12 weeks post-secondary transplant, human donor cells repopulation was determined (FIG. 36B).

LSK Flk2^− cells [2] = assay: 14-day ex vivo expansion of bone marrow MNCs in ST media with or without GSK3β inhibitor, FACS; type: cell-based, mouse; details: Tpo or SCF alone; data not shown
LSK Flk2^− cells [3] = assay: 10-day culture of bone marrow MNCs with PI3K inhibitor, CHIR99021 or without insulin, expansion of LSK Flk2^− cells; type: cell-based, mouse
LSK Flk2^− cells [4] = assay: Ex vivo culture of sorted LSK Flk2^− cells with GSK-3β and PTEN inhibitors, expansion by FACS; type: cell-based, mouse
Description: LSK or LSK Flk2^− cells were sorted into 96-well U-bottom tissue culture plates at 100 cells/well with 200 μl media/well. Cells were incubated at 37° C., 5% O2, 5% CO2 (balance N2) for the indicated number of days. One-half total volume of media (see Table 1, below for the base media) was carefully pipetted from the top and replaced with fresh media every other day.
One hundred LSK Flk2^− cells were sorted from wild-type (C57Bl/6) mice and cultured in (1) media, (2) media+1 μM CHIR99021 (a GSK-3β inhibitor, a gift from Dr. Sheng Ding), (3) media+200 nM Dipotassium Bis-peroxo(picolinato)oxovanadate (BpV(pic), a PTEN inhibitor, available from Calbiochem, Cat. No. 203705), (4) media+1 μM CHIR99021+200 nM BpV(pic), (5) media+200 nM Shikonin (also a PTEN inhibitor, available from Calbiochem, Cat. No. 565850), and (6) media+200 nM Shikonin+1 μM CHIR99021. (FIGS. 3B-C). Cells were cultured as described above. Cells were examined at 17 days of culture (FIG. 3B, original magnification 100×) and 23 days (FIG. 3C, original magnification 40×).
LSK Flk2^− cells at 28 days culture in the indicated media conditions were examined (FIG. 3D, original magnification 200×).
FACS analysis of 28 day LSK Flk2^− cells cultured in media+BpV(pic)+CHIR99021 (FIG. 3E) was performed. Cells were pre-gated on live, lineage negative cells.
Fold expansion of LSK Flk2^− cells after 28 days culture in (1) media, (2) media+BpV(pic), (3) media+CHIR99021, and (4) media+CHIR99021+BpV(pic) were analyzed.
Cells cultured for 9 days in (1) media, (2) media+BpV(pic) (200 nM), (3) media+CHIR99021 (100 nM), and (4) media+CHIR99021 (100 nM)+BpV(pic) (200 nM) were re-sorted for LSK Flk2^− cells, and fold expansion of LSK Flk2^− cells after 9 days culture in the indicated conditions was determined (FIG. 3I).
FACS analysis was performed on 9 day LSK Flk2^− cells cultured in media+BpV(pic) (200 nM)+CHIR99021 (100 nM) (FIG. 3J). Cells were pre-gated on live, lineage negative cells.

[5] = system: lethally irradiated (10 Gy) CD45.1^+ recipient mice; assay: Transplantation of cultured sorted LSK Flk2^− cells into lethally irradiated recipients, donor engraftment; type: in vivo, mouse; details: 28-day cultures, 1000 re-sorted LSK Flk2^− cells + 2×10^5 competitor cells; peripheral blood 4 weeks post-transplant
Description: Cells were harvested from the wells prior to transplantation by pipetting up and down several times before transferring to a fresh tube. Residual was then collected by adding more media and repeating. Cells were washed in DMEM (Invitrogen, Cat. No. 31053) without phenol red and added to the appropriate number of whole bone marrow rescue cells from a congenic donor (for 200,000 rescue cells+1,000 re-sorted LSK Flk2^− cells (FIGS. 3F-H) or the non-adherent product of 10 days culture of 100 LSK Flk2^− cultured cells (FIGS. 3I-K) per mouse as indicated). […]
Repopulation was measured at 4 weeks post-transplant by collection of peripheral blood, red blood cell lysis, and staining of CD45.1 (recipient) compared to CD45.2 (donor) engraftment using antibodies purchased from eBiosciences (FITC conjugated CD45.2 (Cat. No. 11-0454-85) and PE-Cy5 conjugated CD45.1 (Cat. No. 15-0453-82)). […] Multi-lineage reconstitution was determined by CD3, B220 (for lymphoid) and Gr1, Mac-1 (for myeloid), as described above.
Cells cultured for 28 days in (1) media, (2) media+BpV(pic), (3) media+CHIR99021 and (4) media+CHIR99021 (1 μM)+BpV(pic) (200 nM) were re-sorted for LSK Flk2^− cells. […] At 4 weeks post-transplant, peripheral blood was analyzed for donor (FIG. 3G) and multi-lineage (FIG. 3H) engraftment. […]

Nc1ncn([C@H]2C[C@H](O)[C@@H](CO)O2)c(=O)n1 [Decitabine, 5-Aza-2′-deoxycytidine]
Human UCB-derived HSC expansion in long-term ex vivo culture [1]: human UCB-derived HSC expansion is enhanced | Expansion of functional, primitive human HSCs in serial transplant recipients (NSG recipients): further enhanced

Tpo: recombinant Thrombopoietin, cytokine
HSC expansion with a single cytokine alone (LSK Flk2^− cells [2]): could not expand HSCs in culture

SCF: recombinant Stem Cell Factor, cytokine
HSC expansion with a single cytokine alone (LSK Flk2^− cells [2]): could not expand HSCs in culture

CC(C)n1cnc2c(NCCc3ccc(O)cc3)nc(-c3csc4ccccc34)nc21 [SR1]
Human UCB-derived HSC expansion in long-term ex vivo culture [1]: did not enhance overall HSC expansion in long-term cultures

Cn1c(=O)n(-c2ccc(C(C)(C)C#N)cc2)c2c3cc(-c4cnc5ccccc5c4)ccc3ncc21 [NVP-BEZ235]
Effect on the ability of CHIR99021 to enhance expansion (LSK Flk2^− cells [3]; 10 days culture with 250 nM CHIR99021 plus PI3K inhibitor): ability of CHIR99021 to enhance expansion was negated by PI3K inhibition | Expansion of LSK Flk2^− cells (LSK Flk2^− cells [3]; 10 days culture, 250 nM CHIR99021, NVP-BEZ235 at indicated concentrations): decreased the ability of LSK Flk2^− cells to expand in a dose-dependent manner

insulin: recombinant human insulin in StemSpan media, a major stimulator of the PI3K/Akt pathway
Dependence of phenotypic HSC expansion on medium component (LSK Flk2^− cells [3]; ST media with or without insulin, 10 days): expansion of phenotypic HSCs is dependent on insulin

Dipotassium Bis-peroxo(picolinato)oxovanadate [BpV(pic)]
Expansion of LSK cells compared to control (photographs) (LSK Flk2^− cells [4]; 17 and 23 days culture, 1 μM CHIR99021, 200 nM BpV(pic)): greater expansion of LSK cells | Expansion of LSK Flk2^− cells compared to media without inhibitor (LSK Flk2^− cells [4]; 28 days culture): significant expansion | Mice showing >1% engraftment [5]: 0/10
